Test results from ChEMBL document CHEMBL1201862, “PubChem BioAssay data set” (2004).
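Growth conditions: 96-well plates. Treatment: test compound, 48 hours, 5 concentrations. Analysis: linear interpolation between bracketing concentrations; unreached endpoints set to highest concentration. Abbreviation: GI50, concentration required for 50% inhibition of growth.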 Calls of active or inactive are those of the source. No stated cut-off is given here; in the data, active = GI50 up to about 1.1 µM and inactive = higher.

Experiments:
Experiment in all cases: inhibition of tumour cell growth, NCI panel, 48 h
RXF 393 = system: RXF 393
Hs-578T = system: Hs-578T
A549 = system: A549
M14 = system: M14
EKVX = system: EKVX
SF-295 = system: SF-295
SK-MEL-28 = system: SK-MEL-28
LOX IMVI = system: LOX IMVI
NCI-H460 = system: NCI-H460
NCI-H522 = system: NCI-H522
PC-3 = system: PC-3
NCI-H23 = system: NCI-H23
T47D = system: T47D
786-0 = system: 786-0
SK-MEL-5 = system: SK-MEL-5
ACHN = system: ACHN
UO-31 = system: UO-31
U-251 = system: U-251
HT-29 = system: HT-29
BT-549 = system: BT-549

Measured: GI50

O=[N+]([O-])C(C(Cl)=C(Cl)Cl)=C(n1cncn1)n1cncn1
inactive: RXF 393 14.6 µM | Hs-578T 27 µM | A549 > 22.1 µM | M14 31.4 µM | EKVX 24.3 µM | SF-295 > 86.7 µM | SK-MEL-28 32.6 µM | LOX IMVI 17.7 µM | NCI-H460 > 75.5 µM | NCI-H522 14 µM | PC-3 32.1 µM | NCI-H23 25.6 µM | T47D 19 µM | 786-0 18.6 µM | SK-MEL-5 11.9 µM | ACHN 19.3 µM | UO-31 18.5 µM | U-251 34.6 µM | HT-29 19 µM | BT-549 18.7 µM

Cc1ccc(S(=O)(=O)N2CCC[C@@H]2C(=O)O[C@@H]2CCC3CC=CC32)cc1 (stereo not given in full)
inactive: RXF 393 20 µM | Hs-578T 33.3 µM | A549 34.5 µM | M14 34.6 µM | EKVX 41.6 µM | SF-295 36.8 µM | SK-MEL-28 47.9 µM | LOX IMVI 16.1 µM | NCI-H460 35.6 µM | NCI-H522 18.9 µM | PC-3 21.4 µM | NCI-H23 35.1 µM | T47D 20.9 µM | 786-0 19.9 µM | SK-MEL-5 14.8 µM | ACHN 38.5 µM | UO-31 13.6 µM | U-251 34.3 µM | HT-29 24 µM | BT-549 18.9 µM

Cc1nc(-n2nc(-c3ccccc3)cc2-c2ccccc2)sc1C(/C=C\c1ccc([N+](=O)[O-])cc1)=N/NC(=S)NN
inactive: RXF 393 37.4 µM | Hs-578T 25 µM | A549 18.7 µM | M14 34.4 µM | EKVX > 56.6 µM | SF-295 13.8 µM | SK-MEL-28 45.2 µM | LOX IMVI 26.1 µM | NCI-H460 33.5 µM | NCI-H522 18.2 µM | PC-3 28.2 µM | NCI-H23 22.1 µM | T47D 24.9 µM | 786-0 22.9 µM | SK-MEL-5 27.7 µM | ACHN 40.3 µM | UO-31 > 43.9 µM | U-251 > 74.3 µM | HT-29 30.6 µM | BT-549 21.3 µM

O=C1c2ccccc2CC12Cc1ccccc1C2
inactive: RXF 393 20.6 µM | Hs-578T 52.2 µM | A549 37.3 µM | M14 49.1 µM | EKVX 20.7 µM | SF-295 > 100 µM | SK-MEL-28 > 100 µM | LOX IMVI 35.8 µM | NCI-H460 57.9 µM | NCI-H522 36.6 µM | PC-3 42 µM | NCI-H23 > 100 µM | T47D 36.2 µM | 786-0 36 µM | SK-MEL-5 16.7 µM | ACHN 63.1 µM | UO-31 40.1 µM | U-251 60.7 µM | HT-29 23.4 µM | BT-549 83.2 µM

CNCCCNC1(c2cc3ccccc3s2)CCCCC1
inactive: RXF 393 1.36 µM | Hs-578T 13.2 µM | A549 7 µM | M14 3.8 µM | EKVX 13.3 µM | SF-295 14.2 µM | SK-MEL-28 1.64 µM | LOX IMVI 2.79 µM | NCI-H460 2.86 µM | NCI-H522 5.64 µM | PC-3 9.44 µM | NCI-H23 16.4 µM | T47D 4.92 µM | 786-0 3.47 µM | SK-MEL-5 2.21 µM | ACHN 14 µM | UO-31 2.32 µM | U-251 4.65 µM | HT-29 2.46 µM | BT-549 14.6 µM
